According to article PMC6368365, “Didehydro-Cortistatin A Inhibits HIV-1 by Specifically Binding to the Unstructured Basic Region of Tat” (mBio, 2019):

Target: T1, Pep B-TAR interaction (Human immunodeficiency virus type 1 group M subtype B, UniProt P20879)
T1 construct: Pep B is a peptide encompassing the basic domain of HIV Tat (^45ISYGRKKRRQRRRAP^59)
Assay: EMSA of Tat's basic peptide (Pep B) with TAR
Format: biochemical, HIV-1
Conditions: Tat basic peptide residues 45 to 59
Description: FIG 6 dCA binding to Tat disrupts Tat-TAR interaction. (A) EMSA of full-length Tat with TAR in the presence of dCA. Raltegravir (Ralt.) and deleted bulge TAR (ΔTAR) were used as negative controls. Data are representative of n = 3 independent experiments. (B) EMSA of Tat’s basic domain with TAR in the presence of increasing concentrations of dCA to Tat’s basic peptide. Pep B is a peptide encompassing the basic domain of HIV Tat (^45ISYGRKKRRQRRRAP^59). Pep C (^69LSKQPASQPRGDPTG^83) and unlabeled or cold TAR (TARc) were used as negative controls. Neomycin, which binds to Tat and TAR, was used as a positive control. Ratios of compounds (or TARc) concentrations to peptide are shown. Data are representative of n = 3 independent experiments. […] Shown are ITC results from binding of dCA (left) or Tat peptide (right) to TAR at 25°C. […] For the lower plots, results were converted to molar heats and plotted against the molar ratio of dCA or peptide to RNA. Data are representative of n = 2 independent experiments. (D) Tat-TAR interaction blocked by dCA in HeLa-CD4-LTR-Luc cells in vivo. Cells transfected with Tat or Tat Mut (arginine residues mutated to alanine in Tat’s basic domain) were incubated with DMSO or the indicated compounds (25 nM). Forty-eight hours later, cells were either lysed to determine the luciferase activity or cross-linked for ChIP assays. Luciferase activity was determined relative to protein concentration (Bradford assay) (Fig. S9A). Western blotting was performed to verify the amount of Tat under each condition (Fig. S9B). ChIP of Tat was followed by qRT-PCR of TAR DNA. The results are presented as percentage of input. The mean ± SEM is represented. Data are representative of n = 3 independent experiments. Statistical significance was determined using one-way ANOVA with post hoc Tukey’s test with 3 technical replicates. ns, not significant; ***, P < 0.0001.
We also performed the same experiment with a peptide encompassing the basic domain of Tat (Pep B; residues 45 to 59) and dCA.
EMSA With full-length Tat: similar protocol was performed as in Das et al. (60). […]

Compound	inhibition of Pep B-TAR interaction (EMSA)
CN(C)C1CC23CCC4(O2)C(=CCC2(C)C(c5ccc6ccncc6c5)=CCC24)C=C3C(O)C1O (centres unmarked) [dCA, didehydro-cortistatin A]	inhibited the interaction of Pep B with TAR in a dose-dependent manner
Cc1nnc(C(=O)NC(C)(C)c2nc(C(=O)NCc3ccc(F)cc3)c(O)c(=O)n2C)o1 [raltegravir, reference compound]	did not compete
